Assay results reported in patent US20190350940A1, “PLATINUM COMPOUNDS, COMPOSITIONS, AND USES THEREOF” (priority 2015, published 2019).
“And” between values parts separate entries of the source, which are not always exact repeats. Equal values may be shown once. “Also recorded” adds a separate entry of the source.

How the values were obtained:
[1] = Single dose intravenous dose range-finding toxicity study in Beagle dogs (Compound 8-TX-002); format: in vivo, dog; settings: both sexes, Beagle, in vivo; single IV dose, dog
Description: (§1) This study (Compound 8-TX-002) was conducted to evaluate and characterize the acute toxicity and to determine an MTD of Compound 8 when administered once via IV injection to the dog, and to assist in dose selection for a subsequent dog cardiovascular study (Compound 8-TX-005). The test article, Compound 8, was formulated prior to dosing, as a solution in 5 mM citrate buffered saline (0.9% sodium chloride), pH about 4-4.5 at nominal concentrations of 1.2, 2.4, 4.0, and 4.8 mg/mL. Dose formulations were all within the acceptance criteria (+10% of target concentration) ranging from 92.1 to 99.8 percent of target concentration.
(§2) Groups of 2 animals each (1 male, 1 female) received Compound 8 at doses of 3, 6, 10, or 12 mg/kg. Assessment of toxicity was based on mortality, clinical observations, body weight, and qualitative food assessment; physical examinations; and clinical pathology. Toxicokinetic assessment was conducted for platinum concentration in the plasma and plasma ultrafiltrate.

Beagle dogs = assay: as above; format: in vivo, dog
Description: as §1, §2

CC(=O)[O][Pt]([NH2])([NH2])([Cl])([Cl])[O]C(=O)NCCCCCN1C(=O)C=CC1=O [Compound 8]
MTD [1]: 10 mg/kg | Decrease in body weight (Beagle dogs; 12 mg/kg animals): exceeded 10% | Chemistry, coagulation, or urinalysis parameters (Beagle dogs; 3, 6, 10, 12 mg/kg): no definitive effects | Hematology parameters (Beagle dogs; both sexes, all groups (3, 6, 10, 12 mg/kg)): decreases in reticulocytes, red cell mass, neutrophils and platelets | MTD (Beagle dogs; single IV dose, dog, corresponds to 10 mg/kg): 200 mg/m^2 and 205 (MTD) mg/m^2 | Mortality and treatment-related clinical observations (Beagle dogs; up to 12 mg/kg (240 mg/m^2)): no mortalities or treatment related clinical observations; also recorded: no mortalities
